Laboratory results from ChEMBL document CHEMBL1201862, “PubChem BioAssay data set” (2004).
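Growth conditions: 96-well plates. Treatment: test compound, 48 hours, 5 concentrations. Analysis: linear interpolation between bracketing concentrations; unreached endpoints set to highest concentration. The concentration for 50% growth inhibition is given as GI50.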 Activity calls are given as the source filed them. No stated cut-off is given here; in the data, active = GI50 up to about 1.1 µM and inactive = higher.

Key:
Assay in all cases: DTP human tumour cell line panel, 48 h
[1] = test system: SN12C
[2] = test system: NCI-H226
[3] = test system: Hs-578T
[4] = test system: OVCAR-5
[5] = test system: MDA-MB-435
[6] = test system: SNB-75
[7] = test system: A498
[8] = test system: K562
[9] = test system: HCT-116
[10] = test system: PC-3
[11] = test system: U-251
[12] = test system: SW-620
[13] = test system: OVCAR-8
[14] = test system: SK-OV-3
[15] = test system: COLO 205
[16] = test system: LOX IMVI
[17] = test system: HOP-92
[18] = test system: NCI/ADR-RES
[19] = test system: RPMI-8226
[20] = test system: CCRF-CEM
[21] = test system: OVCAR-3
[22] = test system: SF-295
[23] = test system: UACC-62
[24] = test system: ACHN
[25] = test system: OVCAR-4
[26] = test system: CAKI-1
[27] = test system: DU-145
[28] = test system: UACC-257
[29] = test system: MOLT-4
[30] = test system: SK-MEL-28
[31] = test system: HCT-15
[32] = test system: HL-60
[33] = test system: SNB-19
[34] = test system: NCI-H460
[35] = test system: M14
[36] = test system: A549
[37] = test system: HOP-62
[38] = test system: HT-29
[39] = test system: RXF 393
[40] = test system: EKVX
[41] = test system: Malme-3M
[42] = test system: SR
[43] = test system: 786-0
[44] = test system: SK-MEL-2
[45] = test system: HCC 2998
[46] = test system: SK-MEL-5
[47] = test system: SF-539
[48] = test system: SF-268
[49] = test system: NCI-H522
[50] = test system: BT-549
[51] = test system: MCF7
[52] = test system: UO-31
[53] = test system: TK-10
[54] = test system: NCI-H23
[55] = test system: T47D
[56] = test system: IGROV-1
[57] = test system: KM12

## CC(C)Oc1cccc(N2C(NCCc3c[nH]c4ccccc34)=Nc3ccncc3S2(=O)=O)c1
[1]
  GI50: > 100 µM (inactive)
[2]
  GI50: > 100 µM (inactive)
[3]
  GI50: 3.9 µM (inactive)
[4]
  GI50: > 100 µM (inactive)
[5]
  GI50: 25.8 µM (inactive)
[6]
  GI50: 8.05 µM (inactive)
[7]
  GI50: 9.31 µM (inactive)
[8]
  GI50: 3.82 µM (inactive)
[9]
  GI50: 6.71 µM (inactive)
[10]
  GI50: 6.4 µM (inactive)
[11]
  GI50: 17.9 µM (inactive)
[12]
  GI50: 8.36 µM (inactive)
[13]
  GI50: 57.4 µM (inactive)
[14]
  GI50: > 100 µM (inactive)
[15]
  GI50: 1.79 µM (inactive)
[16]
  GI50: 52.1 µM (inactive)
[17]
  GI50: 8.45 µM (inactive)
[18]
  GI50: 29.9 µM (inactive)
[19]
  GI50: 5.51 µM (inactive)
[20]
  GI50: 6.15 µM (inactive)
[21]
  GI50: 11.7 µM (inactive)
[22]
  GI50: 20.7 µM (inactive)
[23]
  GI50: 31 µM (inactive)
[24]
  GI50: 35.5 µM (inactive)
[25]
  GI50: 8 µM (inactive)
[26]
  GI50: 42.1 µM (inactive)
[27]
  GI50: 22.5 µM (inactive)
[28]
  GI50: 9.53 µM (inactive)
[29]
  GI50: 3.94 µM (inactive)
[30]
  GI50: 8.43 µM (inactive)
[31]
  GI50: 4.98 µM
[32]
  GI50: 3.93 µM (inactive)
[33]
  GI50: > 100 µM (inactive)
[34]
  GI50: 6.53 µM (inactive)
[35]
  GI50: 10.4 µM (inactive)
[36]
  GI50: 40.9 µM (inactive)
[37]
  GI50: > 100 µM (inactive)
[38]
  GI50: 5.01 µM (inactive)
[39]
  GI50: 3.46 µM (inactive)
[40]
  GI50: 72.8 µM (inactive)
[41]
  GI50: 32.4 µM (inactive)
[42]
  GI50: 3.26 µM (inactive)
[43]
  GI50: 2.09 µM (inactive)
[44]
  GI50: 20.8 µM (inactive)
[45]
  GI50: 24.4 µM (inactive)
[46]
  GI50: 9.59 µM (inactive)
[47]
  GI50: 33.7 µM (inactive)
[48]
  GI50: 15.7 µM (inactive)
[49]
  GI50: 7.01 µM (inactive)
[50]
  GI50: 61.1 µM (inactive)
[51]
  GI50: 4.73 µM (inactive)
[52]
  GI50: 81.8 µM (inactive)
[53]
  GI50: 19.2 µM (inactive)
[54]
  GI50: 33.1 µM (inactive)
[55]
  GI50: 7.21 µM (inactive)
[56]
  GI50: 41.7 µM (inactive)
[57]
  GI50: 30.5 µM (inactive)
